Where two headings read alike, the source gives them in different places.
Experiments:
[1] = test system: Proteus mirabilis (PMI) isolates; experiment: microbe, parasite or virus in culture; assay type: cell-based; settings: for MIC: Proteus mirabilis, read-out: MIC
Procedure, shortened: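 Log-phase bacteria at a final 5·10^5 CFU/mL in cation-adjusted Mueller-Hinton broth were incubated 16-20 h at 35° C in ambient air with compound alone or with an antibacterial. MIC was the lowest concentration preventing visible growth; combination MIC of the antibacterial was read at each compound concentration.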

[2] = test system: Citrobacter freundii (CFR) isolates; experiment: MIC of compounds alone and combined with antibacterials, broth microdilution (CLSI); assay type: cell-based; settings: for MIC: Citrobacter freundii, read-out: MIC
Description: Method 2: MIC of Compounds Alone and Combined with Antibacterials Against Bacterial Isolates.
Compounds of the present invention were assessed against genotyped bacterial strains (Table 3, 4) alone or in combination with an antibacterial (Table 2). […] Log phase bacterial suspensions were adjusted to a final density of 5·10^5 CFU/mL in cation-adjusted Mueller-Hinton broth (ca-MHB; Becton-Dickinson and Company) and added to each well (98 μL). Microplates were incubated for 16-20 h at 35° C. in ambient air. The MIC of the compounds was defined as the lowest concentration of said compounds that prevented bacterial growth as read by visual inspection. The MIC of ATB at each compound concentration was defined as the lowest concentration of ATB that prevented bacterial growth as read by visual inspection.

C=CC1=C(C(=O)O)N2C(=O)[C@@H](NC(=O)/C(=N\OCC(=O)O)c3csc(N)n3)[C@H]2SC1 [FIX, Cefixime]
> 128 µg/mL: MIC ([1]; PMI UFR127, alone) | MIC ([1]; strain PMI UFR124 (CTX-M-2), ATB alone) | MIC ([1]; strain PMI UFR127 (VEB-1), ATB alone) | MIC ([1]; strain PMI UFR129 (TEM-1, VEB-6), ATB alone) | MIC ([1]; strain PMI UFR237 (VEB-6), ATB alone) | MIC ([2]; ATB alone, strain CFR UFR253 (TEM-1, SHV-12, OXA-48)) | MIC ([2]; ATB combined with CLA @ 4 μg/ml, strain CFR UFR253 (TEM-1, SHV-12, OXA-48)) | MIC ([2]; CFR UFR250, alone) | MIC ([2]; strain CFR UFR10 (OXA-48), ATB alone) | MIC ([2]; strain CFR UFR83 (TEM-3, AmpC), ATB alone) | MIC ([2]; strain CFR UFR83 (TEM-3, AmpC), CLA @ 4 μg/ml+ ATB)
16 µg/mL: MIC ([2]; ATB combined with CLA @ 4 μg/ml, strain CFR UFR254 (VEB-1b, OXA-48, qnrA))
1020 µg/mL: MIC ([1]; PMI UFR126, alone) | MIC ([1]; strain PMI UFR126 (TEM-2, PER-1), ATB alone)
<=0.25 μg/mL: MIC ATB in combination ([1]; PMI UFR82, AF1 @ 4 μg/mL) | MIC ATB in combination ([1]; PMI UFR82, AF1 @ 8 μg/mL) | MIC ATB in combination ([1]; PMI UFR120, AF1 @ 4 μg/mL) | MIC ATB in combination ([1]; PMI UFR120, AF1 @ 8 μg/mL) | MIC ATB in combination ([1]; PMI UFR121, AF1 @ 4 μg/mL) | MIC ATB in combination ([1]; PMI UFR121, AF1 @ 8 μg/mL) | MIC ATB in combination ([1]; PMI UFR122, AF1 @ 4 μg/mL) | MIC ATB in combination ([1]; PMI UFR122, AF1 @ 8 μg/mL) | MIC ATB in combination ([1]; PMI UFR123, AF1 @ 4 μg/mL) | MIC ATB in combination ([1]; PMI UFR123, AF1 @ 8 μg/mL) | MIC ATB in combination ([1]; PMI UFR124, AF1 @ 4 μg/mL) | MIC ATB in combination ([1]; PMI UFR124, AF1 @ 8 μg/mL) | MIC ATB in combination ([1]; PMI UFR125, AF1 @ 4 μg/mL) | MIC ATB in combination ([1]; PMI UFR125, AF1 @ 8 μg/mL) | MIC ATB in combination ([1]; PMI UFR127, AF1 @ 4 μg/mL) | MIC ATB in combination ([1]; PMI UFR127, AF1 @ 8 μg/mL) | MIC ATB in combination ([1]; PMI UFR129, AF1 @ 4 μg/mL) | MIC ATB in combination ([1]; PMI UFR129, AF1 @ 8 μg/mL) | MIC ATB in combination ([1]; PMI UFR130, AF1 @ 4 μg/mL) | MIC ATB in combination ([1]; PMI UFR130, AF1 @ 8 μg/mL) | MIC ATB in combination ([1]; PMI UFR237, AF1 @ 4 μg/mL) | MIC ATB in combination ([1]; PMI UFR237, AF1 @ 8 μg/mL) | MIC ATB in combination ([2]; CFR UFR10, AF1 @ 4 μg/mL) | MIC ATB in combination ([2]; CFR UFR10, AF1 @ 8 μg/mL) | MIC ATB in combination ([2]; CFR UFR248, AF1 @ 4 μg/mL) | MIC ATB in combination ([2]; CFR UFR248, AF1 @ 8 μg/mL) | MIC ATB in combination ([2]; CFR UFR249, AF1 @ 4 μg/mL) | MIC ATB in combination ([2]; CFR UFR249, AF1 @ 8 μg/mL) | MIC ATB in combination ([2]; CFR UFR250, AF1 @ 4 μg/mL) | MIC ATB in combination ([2]; CFR UFR250, AF1 @ 8 μg/mL)
1 µg/mL: MIC ([1]; strain PMI UFR122 (TEM-1, CTX-M-15), ATB alone) | MIC ATB in combination ([2]; CFR UFR146, AF1 @ 4 μg/mL) | MIC ATB in combination ([2]; CFR UFR146, AF1 @ 8 μg/mL)
0.5 µg/mL: MIC ([1]; strain PMI UFR120 (TEM-1, SHV-11, CTX-M-14), ATB alone) | MIC ([1]; strain PMI UFR125 (CTX-M-71), ATB alone)
4 µg/mL: MIC ([1]; strain PMI UFR82 (CMY-2), CLA @ 4 μg/ml+ ATB) | MIC ATB in combination ([2]; CFR UFR11, AF1 @ 8 μg/mL)
8 µg/mL: MIC ([1]; strain PMI UFR82 (CMY-2), ATB alone) | MIC ([1]; strain PMI UFR130 (CMY-2), ATB alone) | MIC ([1]; strain PMI UFR130 (CMY-2), CLA @ 4 μg/ml+ ATB) | MIC ATB in combination ([2]; CFR UFR11, AF1 @ 4 μg/mL)
0.016 µg/mL: MIC ATB in combination ([1]; PMI UFR126, AF1 @ 8 μg/mL)
>128 µg/mL: MIC ATB in combination [2]
32 µg/mL: MIC ([2]; ATB alone, strain CFR UFR254 (VEB-1b, OXA-48, qnrA)) | MIC ([2]; strain CFR UFR10 (OXA-48), CLA @ 4 μg/ml+ ATB) | MIC ([2]; strain CFR UFR11 (TEM-1, OXA-1, OXA-48), ATB alone) | MIC ([2]; strain CFR UFR11 (TEM-1, OXA-1, OXA-48), CLA @ 4 μg/ml+ ATB)
≤ 0.25 µg/mL: MIC ([1]; strain PMI UFR120 (TEM-1, SHV-11, CTX-M-14), CLA @ 4 μg/ml+ ATB) | MIC ([1]; strain PMI UFR121 (TEM-1, TEM-52), CLA @ 4 μg/ml+ ATB) | MIC ([1]; strain PMI UFR122 (TEM-1, CTX-M-15), CLA @ 4 μg/ml+ ATB) | MIC ([1]; strain PMI UFR123 (CTX-M-1), CLA @ 4 μg/ml+ ATB) | MIC ([1]; strain PMI UFR124 (CTX-M-2), CLA @ 4 μg/ml+ ATB) | MIC ([1]; strain PMI UFR125 (CTX-M-71), CLA @ 4 μg/ml+ ATB) | MIC ([1]; strain PMI UFR126 (TEM-2, PER-1), CLA @ 4 μg/ml+ ATB) | MIC ([1]; strain PMI UFR127 (VEB-1), CLA @ 4 μg/ml+ ATB) | MIC ([1]; strain PMI UFR129 (TEM-1, VEB-6), CLA @ 4 μg/ml+ ATB) | MIC ([1]; strain PMI UFR237 (VEB-6), CLA @ 4 μg/ml+ ATB)
64 µg/mL: MIC ([2]; strain CFR UFR146 (TEM-1, KPC-2), ATB alone)
128 µg/mL: MIC ([1]; strain PMI UFR121 (TEM-1, TEM-52), ATB alone) | MIC ([1]; strain PMI UFR123 (CTX-M-1), ATB alone) | MIC ATB in combination ([2]; CFR UFR83, AF1 @ 8 μg/mL)
0.031 µg/mL: MIC ATB in combination ([1]; PMI UFR126, AF1 @ 4 μg/mL)

— patent publication US20200017496A1 (priority 2017, published 2020)
